Data reported in patent US6479490B2, “3-indolyl-4-phenyl-1H-pyrrole-2,5-dione derivatives as inhibitors of glycogen synthase kinase-3β” (Syntex (U.S.A.) LLC, priority 2000, dated 2002).
Structures can show the parent of a compound that is named as a salt.

How the values were obtained:
[1] = target: T1, truncated form of recombinant rabbit GSK-3β enzyme (Oryctolagus cuniculus, UniProt G1T8E2); experiment: Inhibition of Glycogen Synthase Kinase-3β, in vitro assay; type: biochemical; conditions: GSK-3β inhibition, 40 μM ATP, CREB-peptide substrate, 30° C. for 1 h
T1 construct: The construct was cloned in pGEX-3X vector; fused on or other part: GST tag at the N-terminus, inferred from the pGEX-3X vector and the glutathione sepharose 4B purification with glutathione elution
T1 sequence (G1T8E2 1-432): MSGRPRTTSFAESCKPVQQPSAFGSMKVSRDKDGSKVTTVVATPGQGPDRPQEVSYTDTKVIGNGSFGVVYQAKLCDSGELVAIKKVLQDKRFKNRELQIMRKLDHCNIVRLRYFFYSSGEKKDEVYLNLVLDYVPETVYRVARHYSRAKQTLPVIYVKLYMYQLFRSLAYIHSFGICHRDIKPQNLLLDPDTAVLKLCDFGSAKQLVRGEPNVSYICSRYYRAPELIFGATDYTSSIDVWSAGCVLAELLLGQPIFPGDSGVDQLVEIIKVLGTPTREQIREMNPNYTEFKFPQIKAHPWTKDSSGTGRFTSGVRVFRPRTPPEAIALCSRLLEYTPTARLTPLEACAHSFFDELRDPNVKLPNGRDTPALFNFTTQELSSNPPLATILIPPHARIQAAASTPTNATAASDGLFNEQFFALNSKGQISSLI
Method: The in vitro GSK-3β inhibitory activity of compounds of this invention was determined with a truncated form of recombinant rabbit GSK-3β enzyme.
The construct was cloned in pGEX-3X vector according to the procedure described in Wang, Q. M. et al., J. Biol. Chem. 269, 14566-14574 (1994). Ten amino acids at the N-terminus were deleted to obtain constitutively active GSK-3β ((see Murai H. et al., FEBS Lett. 392,153-60, (1996)). GSK-3β was expressed in BL21 DE3 cells. The cells were grown at 37° C. until they reached mid log phase and then induced with isopropyl-beta-(D)-thiogalactopyranoside (final concentration 0.4 mM) at 30° C. for 2 h. The cells were homogenized and the cell extract was loaded on a glutathione sepharose 4B column. GSK-3β was eluted with glutathione buffer (50 mM Tris pH 8 and 10 mM reduced glutathione). The eluate was collected in 3 minute fractions and assayed for GSK-3β content on a 10% SDS PAGE (polyacrylamide gel electrophoresis). Fractions above 20% peak height were pooled, aliquoted, and stored at −80° C. until used.
The GSK-3β […] was performed in 50 μl reactions in a 96 well polypropylene plate, each reaction containing 20 mM magnesium chloride, 40 μM ATP, 2 mM DTT, 88.5 μM biotinylated and phosphorylated CREB-peptide substrate (biotin-[…](PO4)YR-OH, see Wang, Q. M. et al., J. Biol. Chem. 269, 14566-14574 (1994)), [γ-^33P] ATP (1 μCi), and 2 μl of compounds of this invention in DMSO (various concentrations). 15 μl of GSK-3β (various concentrations) was added and the reaction mixture was incubated at 30° C. for 1 h. The reaction was stopped by transferring 25 μl of the reaction mixture to a phosphocellulose plate containing 130 μl of 1.85% phosphoric acid. The free radionucleotides in the membrane were washed off under vacuum with 1.85% phosphoric acid (5 times). After the last wash, the plate was transferred to an adoptor plate and 50 μl of scintillation cocktail (Microscint-20, Packard, cat. #20-133) was added to each well and the amount of radioactivity was counted in a top counter.

melting point [°C] | IC50 [1] [nM] | SMILES
160 to 163.5 | – | Cn1cc(C2=C(c3cccc(NCC(O)CO)c3)C(=O)NC2=O)c2ccccc21 (racemic) [II-9, 3-(1-methylindol-3-yl)-4-{3-[(2-(RS)-hydroxy-2-hydroxymethyl)ethylamino]phenyl}-1H-pyrrole-2,5-dione]
182.4 to 187 | – | Cn1cc(C2=C(c3cccc(OCCN)c3)C(=O)NC2=O)c2ccccc21 (as salt: hydrochloride) [II-1, 3-(1-methylindol-3-yl)-4-[3-(2-aminoethyloxy)phenyl]-1H-pyrrole-2,5-dione]
118 to 125 | – | O=C1NC(=O)C(c2cn(CCCO)c3ccc(F)cc23)=C1c1cccc(NCC(O)CO)c1 (racemic) [III-6, 3-{3-[(2,3-dihydroxypropyl)amino]phenyl}-4-[5-fluoro-1-(3-hydroxypropyl)-1H-indol-3-yl]-1H-pyrrole-2,5-dione]
203.1 to 205.8 | – | CC(CO)Nc1cccc(C2=C(c3cn(C)c4ccccc34)C(=O)NC2=O)c1 (racemic) [II-22, 3-(1-methylindol-3-yl)-4-[3-(2-hydroxy-1-methylethylamino)phenyl]-1H-pyrrole-2,5-dione]
220.8 to 221.2 | – | Cn1cc(C2=C(c3cccc(OCC4COC(C)(C)O4)c3)C(=O)NC2=O)c2ccccc21 (stereo in doubt) [II-6, 3-(1-methylindol-3-yl)-4-[3-((R)-2,2-dimethyl-1,3-dioxolan-4-ylmethyloxy)phenyl]-1H-pyrrole-2,5-dione]
220.3 to 222.7 | – | Cn1cc(C2=C(c3ccc(OCC(O)CO)cc3)C(=O)NC2=O)c2ccccc21 (stereo in doubt) [IV-6, 3-(1-methylindol-3-yl)-4-{4-[((R)-2-hydroxy-2-hydroxymethyl)ethyloxy]-phenyl}-1H-pyrrole-2,5-dione]
58 to 65 | – | Cn1cc(C2=C(c3cccc(NCCCO[Si](C)(C)C(C)(C)C)c3)C(=O)NC2=O)c2ccccc21
186.8 to 187.4 | – | Cn1cc(C2=C(c3cccc(OC[C@H]4COC(C)(C)O4)c3)C(=O)NC2=O)c2ccccc21 [II-7, 3-(1-methylindol-3-yl)-4-[3-((S)-2,2-dimethyl-1,3-dioxolan-4-ylmethyloxy)phenyl]-1H-pyrrole-2,5-dione]
220.8 to 221.2 | – | Cn1cc(C2=C(c3ccccc3OCC3COC(C)(C)O3)C(=O)NC2=O)c2ccccc21 (racemic) [Compound I-2, 3-(1-methylindol-3-yl)-4-[2-((RS)-2,2-dimethyl-1,3-dioxolan-4-ylmethyloxy)phenyl]-1H-pyrrole-2,5-dione]
245 to 247.1 | 194 | Cn1cc(C2=C(c3ccccc3OCC(O)CO)C(=O)NC2=O)c2ccccc21 (centres unmarked) [Compound I-1, 3-(1-methylindol-3-yl)-4-{2-[(-2-hydroxy-2-hydroxymethyl)ethyloxy]-phenyl}-1H-pyrrole-2,5-dione]
205.3 to 212.6 | – | Cn1cc(C2=C(c3cccc(N4CCOCC4)c3)C(=O)NC2=O)c2ccccc21 (as salt: hydrochloride) [II-15, 3-(1-methylindol-3-yl)-4-(3-morpholin-4-ylphenyl)-1H-pyrrole-2,5-dione hydrochloride]
136 to 141 | – | Cn1cc(C2=C(c3cccc(N4CCC(O)CC4)c3)C(=O)NC2=O)c2ccccc21 [II-29, 3-[3-(4-hydroxypiperidin-1-yl)phenyl]-4-(1-methyl-1H-indol-3-yl)-1H-pyrrole-2,5-dione]
151.2 to 151.7 | – | Cn1cc(C2=C(c3cccc(OCCCO[Si](C)(C)C(C)(C)C)c3)C(=O)NC2=O)c2ccccc21
177.7 to 178 | – | Cn1cc(C2=C(c3cccc(OC[C@H](O)CO)c3)C(=O)NC2=O)c2ccccc21 [II-3, 3-(1-methylindol-3-yl)-4-{3-[((R)-2-hydroxy-2-hydroxymethyl)ethyloxy]phenyl}-1H-pyrrole-2,5-dione]
– | 20 | Cn1cc(C2=C(c3cccc(OCCN)c3)C(=O)NC2=O)c2ccccc21 [II-1, 3-(1-methylindol-3-yl)-4-[3-(2-aminoethyloxy)phenyl]-1H-pyrrole-2,5-dione]
197.7 to 199 | 29.6 | Cn1cc(C2=C(c3cccc(OCCN4CCOCC4)c3)C(=O)NC2=O)c2ccccc21 [II-4, 3-(1-methylindol-3-yl)-4-[3-(2-morpholin-4-ylethyloxy)phenyl]-1H-pyrrole-2,5-dione]
150.2 to 152.6 | – | Cn1cc(C2=C(c3cccc(OCCCO)c3)C(=O)NC2=O)c2ccccc21 [II-20]
– | 26.4 | Cn1cc(C2=C(c3cccc(OCCCN)c3)C(=O)NC2=O)c2ccccc21 [II-2, 3-(1-methylindol-3-yl)-4-[3-(3-aminopropyloxy)phenyl]-1H-pyrrole-2,5-dione]
– | 133 | Cn1cc(C2=C(c3ccc(OC[C@@H]4COC(C)(C)O4)cc3)C(=O)NC2=O)c2ccccc21 [IV-1, 3-(1-methylindol-3-yl)-4-[4-((R)-2,2-dimethyl-1,3-dioxolan-4-ylmethyloxy)phenyl]-1H-pyrrole-2,5-dione]
170.3 to 170.6 | – | Cn1cc(C2=C(c3cccc(NCCO)c3)C(=O)NC2=O)c2ccccc21 (as salt: hydrochloride) [II-19, 3-(1-methylindol-3-yl)4-[3-(2-hydroxyethylamino)phenyl]-1H-pyrrole-2,5-dione]
58 to 61.5 | – | CC(O)CCNc1ccc(C2=C(c3cn(C)c4ccccc34)C(=O)NC2=O)cc1 (centres unmarked) [IV-4]
201 to 203 | – | Cn1cc(C2=C(c3cccc(NC4COC(C)(C)OC4)c3)C(=O)NC2=O)c2ccccc21 [II-10, 3-(1-methylindol-3-yl)-4-[3-(2,2-dimethyl-1,3-dioxan-5-ylamino)phenyl]-1H-pyrrole-2,5-dione]
– | 230 | O=C1NC(=O)C(c2c[nH]c3ccccc23)=C1c1cccc(OCCN2CCOCC2)c1 [III-3, 3-(1H-indol-3-yl)-4-[3-(2-morpholin-4-ylethoxy)phenyl]-1H-pyrrole-2,5-dione]
176.9 to 178.1 | – | Cn1cc(C2=C(c3cccc(OCC(O)CO)c3)C(=O)NC2=O)c2ccccc21 (stereo in doubt) [II-5, 3-(1-methylindol-3-yl)-4-{3-[((S)-2-hydroxy-2-hydroxymethyl)ethyloxy]-phenyl]-1H-pyrrole-2,5-dione]
